The values below are quoted from earlier work in patent US8951728B2, “Template directed split and mix synthesis of small molecule libraries” (ChemGene Holding ApS, priority 2004, dated 2015).

The data set deals with alphaV/beta3 integrin receptor (Homo sapiens, UniProt P05106+P06756).
Chain of alphaV/beta3 integrin receptor (P06756 31-889 limits assumed): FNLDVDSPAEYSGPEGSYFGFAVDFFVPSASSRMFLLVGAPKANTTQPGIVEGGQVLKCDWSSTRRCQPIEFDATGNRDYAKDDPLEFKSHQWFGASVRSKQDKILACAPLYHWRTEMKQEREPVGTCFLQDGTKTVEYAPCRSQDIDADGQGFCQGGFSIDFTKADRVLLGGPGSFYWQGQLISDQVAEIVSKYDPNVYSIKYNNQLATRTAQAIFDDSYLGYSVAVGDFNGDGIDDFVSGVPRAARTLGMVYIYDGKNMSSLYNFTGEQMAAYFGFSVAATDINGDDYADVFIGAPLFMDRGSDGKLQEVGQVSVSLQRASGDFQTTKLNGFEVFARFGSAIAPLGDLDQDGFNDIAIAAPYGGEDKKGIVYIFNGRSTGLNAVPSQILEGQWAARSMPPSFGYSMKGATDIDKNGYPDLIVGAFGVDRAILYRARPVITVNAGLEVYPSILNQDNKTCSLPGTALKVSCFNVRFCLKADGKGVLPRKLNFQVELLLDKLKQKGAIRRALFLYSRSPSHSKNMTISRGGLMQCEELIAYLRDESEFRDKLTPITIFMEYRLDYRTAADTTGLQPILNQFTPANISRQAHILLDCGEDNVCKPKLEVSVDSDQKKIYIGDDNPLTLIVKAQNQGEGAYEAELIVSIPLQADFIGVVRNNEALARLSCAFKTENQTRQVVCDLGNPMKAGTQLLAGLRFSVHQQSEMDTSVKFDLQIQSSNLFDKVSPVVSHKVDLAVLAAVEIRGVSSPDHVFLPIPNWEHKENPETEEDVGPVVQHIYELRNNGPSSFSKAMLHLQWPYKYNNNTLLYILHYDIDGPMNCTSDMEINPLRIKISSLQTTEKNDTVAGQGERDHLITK
Chain of alphaV/beta3 integrin receptor (P06756 891-1048 limits assumed): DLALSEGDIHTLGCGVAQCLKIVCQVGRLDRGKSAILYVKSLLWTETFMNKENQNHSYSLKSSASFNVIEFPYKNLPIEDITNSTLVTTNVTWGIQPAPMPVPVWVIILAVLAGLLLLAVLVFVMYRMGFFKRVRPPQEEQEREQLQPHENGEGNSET
Chain of alphaV/beta3 integrin receptor (P05106 27-788): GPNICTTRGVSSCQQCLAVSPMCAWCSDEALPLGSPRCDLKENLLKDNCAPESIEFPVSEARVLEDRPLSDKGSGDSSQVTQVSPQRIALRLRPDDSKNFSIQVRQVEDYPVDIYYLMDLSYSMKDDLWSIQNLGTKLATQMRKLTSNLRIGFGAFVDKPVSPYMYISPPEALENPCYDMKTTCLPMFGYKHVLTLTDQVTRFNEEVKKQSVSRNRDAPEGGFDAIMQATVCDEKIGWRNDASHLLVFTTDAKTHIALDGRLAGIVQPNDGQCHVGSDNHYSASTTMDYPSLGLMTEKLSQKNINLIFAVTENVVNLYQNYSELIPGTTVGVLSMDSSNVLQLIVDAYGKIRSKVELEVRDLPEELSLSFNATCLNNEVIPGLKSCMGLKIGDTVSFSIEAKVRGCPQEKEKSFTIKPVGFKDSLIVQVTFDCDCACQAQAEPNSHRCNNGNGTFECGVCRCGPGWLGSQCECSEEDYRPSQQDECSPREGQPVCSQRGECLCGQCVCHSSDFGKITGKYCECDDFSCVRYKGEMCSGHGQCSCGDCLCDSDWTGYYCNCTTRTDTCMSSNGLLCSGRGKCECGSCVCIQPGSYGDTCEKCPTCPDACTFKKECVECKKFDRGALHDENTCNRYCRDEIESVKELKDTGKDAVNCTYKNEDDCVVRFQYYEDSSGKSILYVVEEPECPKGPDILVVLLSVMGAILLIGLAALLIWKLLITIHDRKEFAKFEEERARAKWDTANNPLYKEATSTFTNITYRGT

As to `O=C(O)CC(NC(=O)CNC(=O)CCCc1ccc2c(n1)NCCC2)C(=O)O` (centres unmarked) [Feuston 5], the “affinity compared to the RGD-tripeptide” value is on record as “ten-fold increased affinity”. In addition, under “Feuston et al., J Med. Chem. 2002”, the Kd – broadly, the concentration at which binding is half-saturated – was 111 nM.
